Values quoted from earlier work, collected in patent US20200237789A1, “COMBINATION THERAPY FOR PREVENTING ADDICTION” (Amygdala Neurosciences, Inc., priority 2017, published 2020).

Columns and labels:
[1] = target: T1, hMAO-B (Homo sapiens, UniProt P27338); details: read-out: IC50 hMAO-B
T1 sequence (P27338 1-520): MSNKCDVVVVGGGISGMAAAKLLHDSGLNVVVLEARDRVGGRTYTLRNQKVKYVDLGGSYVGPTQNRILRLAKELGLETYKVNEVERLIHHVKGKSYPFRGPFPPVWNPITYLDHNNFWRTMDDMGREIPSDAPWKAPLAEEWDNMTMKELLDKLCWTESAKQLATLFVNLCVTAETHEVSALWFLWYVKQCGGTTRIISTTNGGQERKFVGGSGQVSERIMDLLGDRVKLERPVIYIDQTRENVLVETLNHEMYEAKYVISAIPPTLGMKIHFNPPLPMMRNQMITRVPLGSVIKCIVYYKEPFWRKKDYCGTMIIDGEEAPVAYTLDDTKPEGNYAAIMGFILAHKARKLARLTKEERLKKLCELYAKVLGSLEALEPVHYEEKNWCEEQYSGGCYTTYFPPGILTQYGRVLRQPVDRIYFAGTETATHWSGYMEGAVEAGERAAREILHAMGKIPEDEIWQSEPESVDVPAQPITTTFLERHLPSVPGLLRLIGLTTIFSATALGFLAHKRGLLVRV

[2] = target: T2, hMAO-A (Homo sapiens, UniProt P21397); details: read-out: IC50 hMAO-A
T2 sequence (P21397 1-527): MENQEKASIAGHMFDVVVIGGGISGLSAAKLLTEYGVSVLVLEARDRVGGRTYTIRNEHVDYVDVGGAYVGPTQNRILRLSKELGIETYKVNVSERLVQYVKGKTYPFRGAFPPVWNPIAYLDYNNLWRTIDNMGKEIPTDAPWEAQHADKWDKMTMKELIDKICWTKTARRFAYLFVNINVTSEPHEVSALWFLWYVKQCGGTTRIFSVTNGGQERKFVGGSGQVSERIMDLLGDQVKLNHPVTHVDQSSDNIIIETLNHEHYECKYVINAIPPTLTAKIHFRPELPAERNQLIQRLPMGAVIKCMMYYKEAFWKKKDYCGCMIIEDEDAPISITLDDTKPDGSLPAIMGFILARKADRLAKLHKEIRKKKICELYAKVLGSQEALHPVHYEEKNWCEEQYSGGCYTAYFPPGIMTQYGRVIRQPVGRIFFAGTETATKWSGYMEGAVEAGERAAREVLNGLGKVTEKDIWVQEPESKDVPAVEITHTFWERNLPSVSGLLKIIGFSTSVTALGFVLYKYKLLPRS

[3] = target: T3, human ALDH-2 enzyme (Homo sapiens, UniProt P05091); details: read-out: IC50 ALDH-2
T3 sequence (P05091 18-517): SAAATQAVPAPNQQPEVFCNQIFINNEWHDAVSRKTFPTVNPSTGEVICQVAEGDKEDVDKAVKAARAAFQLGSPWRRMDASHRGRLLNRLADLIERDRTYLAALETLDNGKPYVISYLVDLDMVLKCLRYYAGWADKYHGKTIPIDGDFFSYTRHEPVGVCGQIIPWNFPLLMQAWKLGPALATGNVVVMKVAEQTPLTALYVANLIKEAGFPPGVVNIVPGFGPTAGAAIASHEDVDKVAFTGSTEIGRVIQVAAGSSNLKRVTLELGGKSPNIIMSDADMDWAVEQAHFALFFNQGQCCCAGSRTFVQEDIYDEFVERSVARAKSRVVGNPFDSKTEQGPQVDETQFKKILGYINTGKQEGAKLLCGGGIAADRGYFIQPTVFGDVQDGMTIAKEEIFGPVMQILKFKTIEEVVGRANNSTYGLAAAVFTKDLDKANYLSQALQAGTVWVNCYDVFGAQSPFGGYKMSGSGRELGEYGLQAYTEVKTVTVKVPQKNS

SMILES	IC50 [1] [µM]	IC50 [2] [µM]	IC50 [3] [µM]
COCCOc1cc(Cl)c(C(=O)NCc2ccc(-c3cc[nH]c(=O)c3)cc2)c(Cl)c1 [(3), 2,6-dichloro-4-(2-methoxyethoxy)-N-(4-(2-oxo-1,2-dihydropyridin-4-yl)benzyl)benzamide]	> 130	> 130	–
Cc1cc(-c2ccc(CNC(=O)c3c(Cl)cccc3Cl)cc2)cc(=O)[nH]1 [(7), 2,6-dichloro-N-[4-(6-methyl-2-oxo-1,2-dihydro-pyridin-4-yl)-benzyl]-benzamide]	> 130	> 130	–
O=C(NCc1ccc(-c2cc[nH]c(=O)c2)cc1)c1c(F)ccc(F)c1Cl [(8), 2-chloro-3,6-difluoro-N-(4-(2-oxo-1,2-dihydropyridin-4-yl)benzyl)benzamide]	> 130	> 130	–
Cc1cc(CNC(=O)c2c(Cl)cccc2Cl)ccc1-c1cc[nH]c(=O)c1 [(9), 2,6-dichloro-N-(3-methyl-4-(2-oxo-1,2-dihydropyridin-4-yl)benzyl)benzamide]	> 130	> 130	–
Cn1ccc(-c2ccc(CNC(=O)c3c(Cl)cccc3Cl)cc2)cc1=O [(10), 2,6-dichloro-N-(4-(1-methyl-2-oxo-1,2-dihydropyridin-4-yl)benzyl)benzamide]	> 130	> 130	–
O=C(NCc1ccc(-c2cc[nH]c(=O)c2)cc1F)c1c(Cl)cccc1Cl [(13), 2,6-dichloro-N-(2-fluoro-4-(2-oxo-1,2-dihydropyridin-4-yl)benzyl)benzamide]	> 130	> 130	–
O=C(NCc1ccc(-c2cc(=O)[nH]cc2F)cc1)c1c(Cl)cccc1Cl [(14), 2,6-dichloro-N-(4-(5-fluoro-2-oxo-1,2-dihydropyridin-4-yl)benzyl)benzamide]	> 130	> 130	–
O=C(NCc1ccc(-c2ccn(COP(=O)(O)O)c(=O)c2)cc1)c1c(Cl)cccc1Cl [compound (2), phosphoric acid mono-(4-{4-[(2,6-dichloro-benzoylamino)-methyl]-phenyl}-2-oxo-2H-pyridin-1-ylmethyl) ester]	> 130	> 130	> 10

Continued, in another order:

IC50 [1] [µM]	IC50 [2] [µM]	SMILES	IC50 [3] [µM]
> 130	> 130	O=C(NCc1ccc(-c2cc[nH]c(=O)c2)cc1)c1cccc(F)c1Cl [(4), 2-chloro-3-fluoro-N-(4-(2-oxo-1,2-dihydropyridin-4-yl)benzyl)benzamide]	–
> 130	> 130	Cc1cccc(Cl)c1C(=O)NCc1ccc(-c2cc[nH]c(=O)c2)cc1 [(5), 2-chloro-6-methyl-N-(4-(2-oxo-1,2-dihydropyridin-4-yl)benzyl)benzamide]	–
> 130	> 130	Cc1cccc(C)c1C(=O)NCc1ccc(-c2cc[nH]c(=O)c2)cc1 [(6), 2,6-dimethyl-N-(4-(2-oxo-1,2-dihydropyridin-4-yl)benzyl)benzamide]	–
> 130	> 130	O=C(NCc1ccc(-c2cc[nH]c(=O)c2)cc1)c1c(F)cccc1F [(11), 2,6-difluoro-N-(4-(2-oxo-1,2-dihydropyridin-4-yl)benzyl)benzamide]	–
> 130	> 130	O=C(NCc1ccc(-c2cc[nH]c(=O)c2)cc1)c1c(F)cccc1Cl [(12), 2-chloro-6-fluoro-N-(4-(2-oxo-1,2-dihydropyridin-4-yl)benzyl)benzamide]	–
> 130	> 130	O=C(NCc1ccc(-c2cc[nH]c(=O)c2)cc1)c1c(Cl)cccc1Cl [compound (1), 2,6-dichloro-N-[4-(2-oxo-1,2-dihydro-pyridin-4-yl)-benzyl]-benzamide]	–
